Experimental data published in US20230048132A1, “CYCLIN-DEPENDENT KINASE INHIBITORS” (SPV THERAPEUTICS INC., priority 2018, published 2023).

Legend:
CDK2-CYCLINA = target: T1, CDK2-CYCLINA (Homo sapiens, UniProt P24941); experiment: CDK inhibition assay (microfluidic LabChip, IC50 format); assay type: biochemical; conditions: Table 4a; read-out: CDK2 CyclinA IC50
T1 construct: purchased Millipore

CDK7 CyclinH = CDK7 CyclinH (Homo sapiens, UniProt P50613); experiment: as above; assay type: biochemical; conditions: Table 4a
CXF COLO 205 = experiment: 2D cell proliferation assay (CellTiter-Blue); assay type: cell-based; conditions: Homo sapiens, 72 h, three days of treatment, read-out: abs. IC50
Method: (§1) Viability of the cells was analyzed by using the CellTiter-Blue® Cell Viability Assay (Promega), and was performed according to manufacturer's instructions. Briefly, cells were harvested from exponential phase cultures (Chapter 6.6), counted and plated in 96-well flat-bottom microtiter plates at a cell density of 4,000-60,000 cells/well in a volume of 140 μl per well. After a 24 hours recovery period, 10 μL cell culture medium (six control wells/plate) or culture medium with test compound were added (Chapter 6.2). The compounds were applied at five concentrations in full-log increments up to 100 μM in duplicate. Cultures were incubated at 37° C. and 5% CO2 in a humidified atmosphere for another three days. After three days of treatment, 20 μl/well CellTiter-Blue® reagent was added. Following incubation with CellTiter-Blue® reagent for up to four hours, fluorescence (FU) was measured by using the Enspire Multimode Plate Reader (excitation λ=570 nm, emission λ=600 nm). For calculations, the mean values of duplicate/sextuplicate (untreated control) data were used.
(§2) An assay was considered fully evaluable if the following quality control criteria were fulfilled: • control/background ratio>3.0-Z′-factor calculated within the assay plate>0.5 [7]—coefficient of variation in the growth control wells <30%
(§3) Drug effects were expressed in terms of the percentage of the fluorescence signal, obtained by comparison of the mean signal in the treated wells with the mean signal of the untreated controls (expressed by the test-versus-control value, T/C-value [%]):
(§4) IC values are reported as relative IC50 values and absolute IC50 and IC70 values. […] The absolute IC70 value gives the concentration of the test compound that achieves T/C=30%. The relative IC50 value is the concentration of test compound that gives a response halfway between the top and bottom plateau of the sigmoidal concentration-response curve (inflection point of the curve). Calculation was done by 4parameter non-linear curve fit (Oncotest Data Warehouse Software).
(§5) If an IC50 or IC70 value could not be determined within the examined dose range (because a compound was either too active or lacked activity), the lowest or highest concentration studied was used for calculation of the geometric mean value.

CXF HT-29 = experiment: 2D cell proliferation assay (CellTiter-Blue); assay type: cell-based; conditions: Homo sapiens, 72 h, three days of treatment, read-out: abs. IC50
Method: as §1, §2, §3, §4, §5

LEXFAM MV4-11 = experiment: 2D cell proliferation assay (CellTiter-Blue); assay type: cell-based; conditions: Homo sapiens, 72 h, three days of treatment, read-out: abs. IC50
Method: as §1, §2, §3, §4, §5

LEXFCM K-562 = experiment: 2D cell proliferation assay (CellTiter-Blue); assay type: cell-based; conditions: Homo sapiens, K562, 72 h, three days of treatment, read-out: abs. IC50
Method: as §1, §2, §3, §4, §5

LIXAH SNU-398 = experiment: 2D cell proliferation assay (CellTiter-Blue); assay type: cell-based; conditions: Homo sapiens, 72 h, three days of treatment, read-out: abs. IC50
Method: as §1, §2, §3, §4, §5

LIXFH HEP-3B = experiment: 2D cell proliferation assay (CellTiter-Blue); assay type: cell-based; conditions: Homo sapiens, Hep3B, 72 h, three days of treatment, read-out: abs. IC50
Method: as §1, §2, §3, §4, §5

LIXFH Hep G2 = experiment: 2D cell proliferation assay (CellTiter-Blue); assay type: cell-based; conditions: Homo sapiens, HepG2, 72 h, three days of treatment, read-out: abs. IC50
Method: as §1, §2, §3, §4, §5

LXFA NCl-H1975 = experiment: 2D cell proliferation assay (CellTiter-Blue); assay type: cell-based; conditions: 72 h, three days of treatment, read-out: abs. IC50
Method: as §1, §2, §3, §4, §5

LXFE Calu-1 = experiment: 2D cell proliferation assay (CellTiter-Blue); assay type: cell-based; conditions: Homo sapiens, 72 h, three days of treatment, read-out: abs. IC50
Method: as §1, §2, §3, §4, §5

LXFL NCl-H1299 = experiment: 2D cell proliferation assay (CellTiter-Blue); assay type: cell-based; conditions: 72 h, three days of treatment, read-out: abs. IC50
Method: as §1, §2, §3, §4, §5

MAXFLB T47D (ER+) = experiment: 2D cell proliferation assay (CellTiter-Blue); assay type: cell-based; conditions: Homo sapiens, 72 h, three days of treatment, read-out: abs. IC50
Method: as §1, §2, §3, §4, §5

MAXFTN BT-549 = experiment: 2D cell proliferation assay (CellTiter-Blue); assay type: cell-based; conditions: Homo sapiens, 72 h, three days of treatment, read-out: abs. IC50
Method: as §1, §2, §3, §4, §5

MAXFTN MDA-MB-231 (ER−) = experiment: 2D cell proliferation assay (CellTiter-Blue); assay type: cell-based; conditions: Homo sapiens, 72 h, three days of treatment, read-out: abs. IC50
Method: as §1, §2, §3, §4, §5

MAXFTN MDA-MB-453 = experiment: 2D cell proliferation assay (CellTiter-Blue); assay type: cell-based; conditions: Homo sapiens, 72 h, three days of treatment, read-out: abs. IC50
Method: as §1, §2, §3, §4, §5

MEXF A-375 = experiment: 2D cell proliferation assay (CellTiter-Blue); assay type: cell-based; conditions: Homo sapiens, 72 h, three days of treatment, read-out: abs. IC50
Method: as §1, §2, §3, §4, §5

MEXF A2058 = experiment: 2D cell proliferation assay (CellTiter-Blue); assay type: cell-based; conditions: Homo sapiens, 72 h, three days of treatment, read-out: abs. IC50
Method: as §1, §2, §3, §4, §5

MEXF M14 = experiment: 2D cell proliferation assay (CellTiter-Blue); assay type: cell-based; conditions: 72 h, three days of treatment, read-out: abs. IC50
Method: as §1, §2, §3, §4, §5

MEXF MDA-MB-435 = experiment: 2D cell proliferation assay (CellTiter-Blue); assay type: cell-based; conditions: Homo sapiens, 72 h, three days of treatment, read-out: abs. IC50
Method: as §1, §2, §3, §4, §5

MEXF WM-266-4 = experiment: 2D cell proliferation assay (CellTiter-Blue); assay type: cell-based; conditions: Homo sapiens, 72 h, three days of treatment, read-out: abs. IC50
Method: as §1, §2, §3, §4, §5

OVXF SK-OV-3 = experiment: 2D cell proliferation assay (CellTiter-Blue); assay type: cell-based; conditions: Homo sapiens, 72 h, three days of treatment, read-out: abs. IC50
Method: as §1, §2, §3, §4, §5

PAXF BxPC-3 = experiment: 2D cell proliferation assay (CellTiter-Blue); assay type: cell-based; conditions: Homo sapiens, 72 h, three days of treatment, read-out: abs. IC50
Method: as §1, §2, §3, §4, §5

PAXF MIA-Pa-Ca-2 = experiment: 2D cell proliferation assay (CellTiter-Blue); assay type: cell-based; conditions: Homo sapiens, MIA PaCa-2, 72 h, three days of treatment, read-out: abs. IC50
Method: as §1, §2, §3, §4, §5

PRXF VCap = experiment: 2D cell proliferation assay (CellTiter-Blue); assay type: cell-based; conditions: Homo sapiens, 72 h, three days of treatment, read-out: abs. IC50
Method: as §1, §2, §3, §4, §5

UXF EFE-184 = experiment: 2D cell proliferation assay (CellTiter-Blue); assay type: cell-based; conditions: Homo sapiens, 72 h, three days of treatment, read-out: abs. IC50
Method: as §1, §2, §3, §4, §5

all cell lines tested = experiment: 2D cell proliferation assay, geometric mean over the cell line panel; assay type: cell-based; conditions: Table 5 upper part; geometric mean over the 47-line panel; read-out: Geomean abs. IC50 value
Method: as §1, §4, §5
The overall potency of a compound was determined by the geometric mean IC50/IC70 values of all individual IC50/IC70 values. In the heatmap representation of IC50 and IC70 values, the distribution of the IC50 or IC70 values obtained for a test compound in the individual cell lines is given in relation to the geometric mean IC50 or IC70 value, obtained over all PDX models tested. The individual IC values range from 1/32-fold geometric mean IC (corresponding to very potent compound activity or high tumor sensitivity) to 32-fold geometric mean IC (corresponding to lack of compound activity or tumor resistance). The heatmap presentation, therefore, represents an antiproliferative “fingerprint” profile of a test compound.

CDK7 CyclinH, sequence (P50613 whole entry): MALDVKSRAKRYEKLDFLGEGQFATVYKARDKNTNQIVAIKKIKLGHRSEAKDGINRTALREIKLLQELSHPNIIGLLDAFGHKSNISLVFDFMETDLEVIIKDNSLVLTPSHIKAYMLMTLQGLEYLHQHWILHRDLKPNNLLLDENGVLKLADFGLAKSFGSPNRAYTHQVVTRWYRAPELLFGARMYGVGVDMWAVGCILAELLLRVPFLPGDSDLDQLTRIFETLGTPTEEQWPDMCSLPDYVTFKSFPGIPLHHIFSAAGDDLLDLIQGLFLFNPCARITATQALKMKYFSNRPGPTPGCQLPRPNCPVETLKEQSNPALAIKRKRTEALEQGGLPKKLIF
CDK7 CyclinH, sequence (P51946 whole entry partner): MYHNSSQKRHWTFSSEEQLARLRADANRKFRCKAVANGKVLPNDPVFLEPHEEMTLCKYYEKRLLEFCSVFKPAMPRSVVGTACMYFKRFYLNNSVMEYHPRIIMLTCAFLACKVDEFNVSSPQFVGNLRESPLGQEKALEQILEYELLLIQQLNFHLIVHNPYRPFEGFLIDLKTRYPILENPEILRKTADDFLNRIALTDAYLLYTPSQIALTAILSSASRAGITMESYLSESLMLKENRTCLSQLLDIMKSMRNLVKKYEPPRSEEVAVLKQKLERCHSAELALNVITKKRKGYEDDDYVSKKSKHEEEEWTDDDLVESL
CDK7 CyclinH, sequence (P51948 whole entry partner): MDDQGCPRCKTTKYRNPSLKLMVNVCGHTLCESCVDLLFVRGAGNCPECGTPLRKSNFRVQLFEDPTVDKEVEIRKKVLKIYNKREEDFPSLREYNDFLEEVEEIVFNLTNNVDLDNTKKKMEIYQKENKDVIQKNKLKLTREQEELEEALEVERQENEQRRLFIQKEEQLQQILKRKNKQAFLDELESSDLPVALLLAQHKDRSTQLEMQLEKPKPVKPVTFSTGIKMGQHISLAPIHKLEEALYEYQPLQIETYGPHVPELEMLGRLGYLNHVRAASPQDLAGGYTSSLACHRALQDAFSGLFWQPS

O=C1NCC[C@@]12Cc1cnc(Nc3ccc(N4CCNCC4)cc3F)nc1N(C1CCCC1)C2=O [Example D146, (S)-8-cyclopentyl-2-((2-fluoro-4-(piperazin-1-yl)phenyl)amino)-5,8-dihydro-7H-spiro[pyrido[2,3-d]pyrimidine-6,3′-pyrrolidine]-2′,7-dione]
IC50 (CDK2-CYCLINA): 273 nM | IC50 (CDK7 CyclinH): 1.12 µM | IC50 (CXF COLO 205): 577 nM | IC50 (CXF HT-29): 8.98 µM | IC50 (LEXFAM MV4-11): ≤ 10 nM | IC50 (LEXFCM K-562): 4.94 µM | IC50 (LIXAH SNU-398): 0.251 µM | IC50 (LIXFH HEP-3B): 3.67 µM | IC50 (LIXFH Hep G2): 0.341 µM | IC50 (LXFA NCl-H1975): 0.356 µM | IC50 (LXFE Calu-1): 5.96 µM | IC50 (LXFL NCl-H1299): 8.9 µM | IC50 (MAXFLB T47D (ER+)): 1.63 µM | IC50 (MAXFTN BT-549): 2.31 µM | IC50 (MAXFTN MDA-MB-231 (ER−)): 703 nM | IC50 (MAXFTN MDA-MB-453): 0.327 µM | IC50 (MEXF A-375): 263 nM | IC50 (MEXF A2058): 1.53 µM | IC50 (MEXF M14): 1.58 µM | IC50 (MEXF MDA-MB-435): 0.875 µM | IC50 (MEXF WM-266-4): 6.22 µM | IC50 (OVXF SK-OV-3): 8.26 µM | IC50 (PAXF BxPC-3): 756 nM | IC50 (PAXF MIA-Pa-Ca-2): 6.3 µM | IC50 (PRXF VCap): 1.26 µM | IC50 (UXF EFE-184): 2.08 µM | IC50 (all cell lines tested): 1.24 µM

CC(C)N1CCN(c2ccc(Nc3ncc4c(n3)N(C3CCCC3)C(=O)[C@]3(CCNC3=O)C4)nc2)CC1 [Example D154, (S)-8-cyclopentyl-2-((5-(4-isopropylpiperazin-1-yl)pyridin-2-yl)amino)-5,8-dihydro-7H-spiro[pyrido[2,3-d]pyrimidine-6,3′-pyrrolidine]-2′,7-dione]
IC50 (CDK2-CYCLINA): 2140 nM | IC50 (CDK7 CyclinH): 13.5 µM | IC50 (CXF COLO 205): 4760 nM | IC50 (CXF HT-29): 29.9 µM | IC50 (LEXFAM MV4-11): ≤ 10 nM | IC50 (LEXFCM K-562): 84.4 µM | IC50 (LIXAH SNU-398): 6.84 µM | IC50 (LIXFH HEP-3B): 78.9 µM | IC50 (LIXFH Hep G2): 8.14 µM | IC50 (LXFA NCl-H1975): 26.3 µM | IC50 (LXFE Calu-1): 48.7 µM | IC50 (LXFL NCl-H1299): 37.3 µM | IC50 (MAXFLB T47D (ER+)): 97.4 µM | IC50 (MAXFTN BT-549): 19.6 µM | IC50 (MAXFTN MDA-MB-231 (ER−)): 4860 nM | IC50 (MAXFTN MDA-MB-453): 7.68 µM | IC50 (MEXF A-375): 254 nM | IC50 (MEXF A2058): 14.5 µM | IC50 (MEXF M14): 21.4 µM | IC50 (MEXF MDA-MB-435): 16 µM | IC50 (MEXF WM-266-4): 81.3 µM | IC50 (OVXF SK-OV-3): 59.9 µM | IC50 (PAXF BxPC-3): 2870 nM | IC50 (PAXF MIA-Pa-Ca-2): 73.9 µM | IC50 (PRXF VCap): 25.4 µM | IC50 (UXF EFE-184): 34.6 µM | IC50 (all cell lines tested): 17 µM
